We go through two compounds from PMC7665192, “A natriuretic peptide from Arabidopsis thaliana (AtPNP-A) can modulate catalase 2 activity” (Scientific Reports, 2020).

In one test the test system is bovine CAT. The test is described as follows: Isothermal titration calorimetry (ITC). The class given is binding. Conditions: 100 μM pAtPNP-A as titrant, PBS pH 7.4, 25 °C, 30 injections. As to the method: ITC experiments were undertaken using MicroCal iTC200 (Malvern Panalytical) calorimeter. The titrations were conducted at 25 °C in PBS buffer at pH 7.4, with 100 μM pAtPNP-A used as a titrant. Total number of injections was set at 30, reference power was 11 μcal s^−1, initial delay was 60 s, and stirring speed was 750 rpm.

Test [1] has as its system mitogen-activated protein kinase (MAPK) pathway. Put plainly: MAPK pathway activation. Particulars: data not shown.
Test [2] relates to ADH5, alcohol dehydrogenase 2. Put plainly: Yeast two-hybrid (Y2H) screen. It is filed as binding, A. thaliana. Particulars: bait AtPNP-A amino acids 26–130, prey At5g43940.1. As to the method: (§1) The Y2H screen using AtPNP-A as bait was carried out by Dualsystems Biotech AG (Zurich, Switzerland). The bait construct for the screening was made by subcloning the cDNA fragment encoding exported portion of AtPNP-A (amino acids 26 to 130) (Fig. 1a) into the pLexA-DIR vector (Dualsystems Biotech AG). The bait construct was transformed into the strain NMY32 (MATa his3Δ200 trp1-901 leu2-3,112 (lexAop)8-ADE2 LYS2::(lexAop)4-HIS3 URA3::(lexAop)8-lacZ GAL4) using standard procedures. Correct expression of the bait was verified by western blotting of cell extracts using a mouse monoclonal antibody directed against the LexA domain (Dualsystems Biotech AG). The absence of self-activation was verified by co-transformation of the bait together with a control prey and selection on minimal medium lacking tryptophan, leucine, and histidine (selective medium). For the Y2H screen, the bait was co-transformed together with a normalized A. thaliana universal P02403 cDNA library (Dualsystems Biotech AG) into NMY32. 3.1 × 10^6 transformants were screened, yielding 96 transformants that grew on selective medium. […] Library plasmids were isolated from positive clones. The identity of positive interactants was determined by sequencing. DNA sequences translated in all three reading frames and searching against the SwissProt database using the BLASTX algorithm (https://blast.ncbi.nlm.nih.gov).

The subject of test [3] is Basic-leucine zipper (bZIP) TF family protein. The test is described as follows: Yeast two-hybrid (Y2H) screen. The class given is binding, A. thaliana. Particulars: bait AtPNP-A amino acids 26–130, prey At2g31370.1. On the procedure:
as §1

The subject of test [4] is CLA, 1-deoxy-D-xylulose-5-phosphate synthase. The test is described as follows: Yeast two-hybrid (Y2H) screen. It is filed as binding, A. thaliana. Conditions: bait AtPNP-A amino acids 26–130, prey At4g15560.1. As to the method:
as §1

The next test has as its system COL1, constans-like 1. Put plainly: Yeast two-hybrid (Y2H) screen. The class given is binding, A. thaliana. Particulars: bait AtPNP-A amino acids 26–130, prey At5g15850.1. On the procedure:
as §1

For test [5], the system named is ERF7, ethylene response factor 7. The test is described as follows: Yeast two-hybrid (Y2H) screen. It is filed as binding, A. thaliana. Conditions: bait AtPNP-A amino acids 26–130, prey At3g20310.1. On the procedure:
as §1

Test [6] relates to ERP/AP2, ethylene response factor. The test is described as follows: Yeast two-hybrid (Y2H) screen. It is filed as binding, A. thaliana. Conditions: bait AtPNP-A amino acids 26–130, prey At5g07580.1. As to the method:
as §1

In another test the test system is Expr, expansin-like B1. Put plainly: Yeast two-hybrid (Y2H) screen. It is filed as binding, A. thaliana. Particulars: bait AtPNP-A amino acids 26–130, prey At4g17030.1. On the procedure:
as §1

For the next test, the system named is FED A, ferredoxin 2. The test is described as follows: Yeast two-hybrid (Y2H) screen. It is filed as binding, A. thaliana. Conditions: bait AtPNP-A amino acids 26–130, prey At1g60950.1. As to the method: as §1
Test [7] relates to HISN5B, histidine biosynthesis 5B. Put plainly: Yeast two-hybrid (Y2H) screen. The class given is binding, A. thaliana. Conditions: bait AtPNP-A amino acids 26–130, prey At4g14910.1. On the procedure: as §1
In test [8] the test system is IGPD, imidazole glycerol-phosphate dehydratase. Put plainly: Yeast two-hybrid (Y2H) screen. Particulars: bait AtPNP-A amino acids 26–130, prey At3g22425.1. It is filed as binding, A. thaliana. On the procedure:
as §1

Test [9] concerns MAC5S, MOS4-associated complex subunit 5C. Put plainly: Yeast two-hybrid (Y2H) screen. Conditions: bait AtPNP-A amino acids 26–130, prey At5g07060.1. It is filed as binding, A. thaliana. As to the method: as §1
For a further test, the system named is NUDX1, nudix hydrolase 1. Put plainly: Yeast two-hybrid (Y2H) screen. Conditions: bait AtPNP-A amino acids 26–130, prey At1g68760.1. It is filed as binding, A. thaliana. On the procedure: as §1
Test [10] relates to PGR1, photosynthetic electron transfer C. Put plainly: Yeast two-hybrid (Y2H) screen. The class given is binding, A. thaliana. Conditions: bait AtPNP-A amino acids 26–130, prey At4g03280.1. As to the method:
as §1

Test [11] relates to Protein containing PAM2 motif. Put plainly: Yeast two-hybrid (Y2H) screen. It is filed as binding, A. thaliana. Particulars: bait AtPNP-A amino acids 26–130, prey At4g14270.1. As to the method: as §1
Test [12] deals with RAP2.12, ethylene response factor. The test is described as follows: Yeast two-hybrid (Y2H) screen. Conditions: bait AtPNP-A amino acids 26–130, prey At1g53910.1. The class given is binding, A. thaliana. As to the method:
as §1

Another test deals with RCA, rubisco activase. Put plainly: Yeast two-hybrid (Y2H) screen. The class given is binding, A. thaliana. Conditions: bait AtPNP-A amino acids 26–130, prey At2g39730.1. As to the method:
as §1

Another test concerns Unknown protein. The test is described as follows: Yeast two-hybrid (Y2H) screen. It is filed as binding, A. thaliana. Conditions: bait AtPNP-A amino acids 26–130, prey At5g39570.1. As to the method:
as §1

Test [13] deals with Calcium-binding EF-hand family protein. Put plainly: Yeast two-hybrid (Y2H) screen. Particulars: bait AtPNP-A amino acids 26–130, prey At2g41410.1. Further details: species or system A. thaliana. As to the method: as §1
Test [14] relates to NAD(P)-binding Rossmann-fold superfamily protein. The test is described as follows: Yeast two-hybrid (Y2H) screen. Conditions: bait AtPNP-A amino acids 26–130, prey At1g07440.1. Further details: species or system A. thaliana. On the procedure: as §1
Test [15] deals with SPL8, squamosal promoter binding protein-like 8. The test is described as follows: Yeast two-hybrid (Y2H) screen. Conditions: bait AtPNP-A amino acids 26–130, prey At1g02065.1. Also on record: species or system A. thaliana. As to the method: as §1
Test [16] concerns receptor perceiving AtPNP-A. Conditions: cited from earlier work. An excerpt:
Similarly, identification of novel receptors targeted by an increasing number of peptidic plant hormones discovered in the last few decades[8],[9] is anticipated. One of those, the plant natriuretic peptides (PNPs), are a group of systemically mobile signals[10] that have a role in the maintenance of salt and water balance[11],[12]. An A. thaliana PNP, termed AtPNP-A (At2g18660; Q9ZV52), has been implicated in several physiological processes ranging from the regulation of stomatal aperture, osmoticum-dependent volume changes[13],[14] and modulation of developmental stage- and tissue-specif ...

Positions of bridges follow the written chain, without caps; N, C: chain ends. Residues, ends and D or L forms follow the SMILES beside them. *: point of attachment. Biotin = O=C1N[C@H]2[C@H](CS[C@H]2CCCCC(=O)*)N1

As for `CC(C)C[C@@H]1NC(=O)[C@H](CC(N)=O)NC(=O)[C@H](CC(N)=O)NC(=O)[C@H](CCCCN)NC(=O)[C@H](C(C)C)NC(=O)CNC(=O)[C@H](C(C)C)NC(=O)[C@H](C(C)C)NC(=O)[C@H](CC(C)C)NC(=O)[C@H]([C@@H](C)O)NC(=O)[C@H](CCC(=O)O)NC(=O)[C@H](CCCNC(=N)N)NC(=O)[C@H](CCC(N)=O)NC(=O)[C@H]([C@@H](C)O)NC(=O)CNC(=O)[C@H](Cc2ccc(O)cc2)NC(=O)[C@@H](NC(=O)[C@H](C)NC(=O)[C@H](CO)NC(=O)[C@H](CCCNC(=N)N)NC(=O)[C@@H](NC(=O)[C@H](Cc2ccc(O)cc2)NC(=O)[C@@H]2CCCN2)[C@@H](C)O)CSSC[C@@H](C(=O)NCC(=O)N[C@@H](CCCNC(=N)N)C(=O)N[C@@H](CCCNC(=N)N)C(=O)N[C@@H](Cc2ccc(O)cc2)C(=O)N[C@@H](CCCNC(=N)N)C(=O)N[C@H](C(=O)N[C@@H](CCCNC(=N)N)C(=O)N[C@@H](CCCCNC(=O)CCCC[C@@H]2SC[C@@H]3NC(=O)N[C@@H]32)C(=O)O)C(C)C)NC(=O)[C@H](C)NC(=O)[C@H](CCCNC(=N)N)NC(=O)CNC(=O)[C@H](CC(N)=O)NC(=O)[C@H](CCC(N)=O)NC(=O)[C@H](Cc2c[nH]c3ccccc23)NC1=O` [pAtPNP-A] (H-PYTRSACYGTQRETLVVGVKNNLWQNGRACGRRYRVRK(Biotin)-OH; disulfide 7-30; N-terminus and C-terminus assumed), the “ITC: conformational changes on binding” value in the test with bovine CAT was “significant conformational changes occurring as a result of pAtPNP-A binding to bovine CAT”. For the same compound, the “Activation of MAPK pathway” value in test [1] is reported as “does not activate mitogen-activated protein kinase (MAPK) pathway”.
“AtPNP-A: An A. thaliana PNP, termed AtPNP-A (At2g18660; Q9ZV52)”: the Strength of binding entry was “Weak” in [2]; “Weak” in test [3]; “Weak” in [4]; “Weak” with COL1, constans-like 1; “Strong” in test [5]; “Strong” in test [6]. Further, the Strength of binding result is recorded as “Weak” in the test on Expr, expansin-like B1; “Weak” with FED A, ferredoxin 2; “Moderate” in test [7]; “Strong” in test [8]; “Strong” in test [9]; “Moderate” in the test on NUDX1, nudix hydrolase 1. Besides, the Strength of binding result is on record as “Weak” in [10]; “Moderate” in test [11]; “Strong” in test [12]; “Strong” with RCA, rubisco activase; “Weak” with Unknown protein; “Weak” in test [13]. Further, the Strength of binding entry in test [14] is on record as “Moderate”; in [15] it was “Weak”. In addition, the “Generation of cGMP by receptor upon AtPNP-A binding” value in test [16] is given as “catalyzes generation of cGMP upon binding of AtPNP-A”.
